This is an account of results in patent publication US10213415B2, “Compounds as opioid receptor modulators” (JANSSEN PHARMACEUTICA NV, priority 2004, dated 2019).

Experiment [1] concerns male CD-1 mice. Kind of experiment: In Vivo Assay: Stress-Induced Entire GI Tract Transit (MEGIT, MEGIT-NES, MEGIT-RS). Details: species or system mouse. The settings on record: for MEGIT-RS entire GI transit 5 hr (% RS): dose 20 p.o., restraint stress; for MEGIT entire GI transit 6 hr % ctrl: acclimated mice. Here is the method:
Methods: The animals used in these studies are male CD-1 mice, ave. wt. ˜30 g. Procedure: Mice were housed in LAM under 12 h/12 h light/dark cycle, food & water ad lib. On the day before the experiments, the mice assigned to the “acclimated” (non-stressed) control group were placed into individual wire mesh-bottomed cages, provided food and water ad lib. The acclimated control group was in this new environment for 16-18 hrs prior to beginning the test. On the day of the experiment, mice assigned to experimental groups were housed in home cages were transported to procedure room and remain in their home cages until the start of the transit portion of the study. […] After the carmine marker was administered each mouse was placed in the novel environment cage. One hour after administration of carmine, the fecal pellet output of each animal was recorded. At one-hour intervals thereafter the fecal pellets were examined for the presence of carmine-dye. The number of mice that excreted a carmine-containing fecal pellet at the end of each hour post carmine administration was recorded, until all mice had excreted carmine in a fecal pellet or the end of 6 hrs post carmine administration, whichever occurred first. A variant of this novel environment stress (NES) paradigm is to use the same procedures of dye and compound administrations, but to use restraint (confinement in a small plastic tube for 3 hr) as a stressor (RS=restraint stress), followed by two hours in an individual cage (total of 5 hr fecal transit time). […] The mouse entire GI tract (MEGIT) transit test can thus be done in mice that are all acclimated (non-stressed), in which case the data are expressed as % control (vehicle only), or in mice that are exposed to NES or RS, in which cases the data are expressed as % of the vehicle treated NES or RS group.

Experiment [2] deals with male CD-1 mice. In words: In Vivo Assay: Upper GI Tract Transit (MUGIT). The settings on record: Mus musculus, po, 1 h, p.o., read-out: upper GI transit (% ctrl). Here is the method: Methods: The animals used in these studies were male CD-1 mice, ave. wt. ˜30 g. Mice were housed under 12 h/12 h light/dark cycle, food & water ad lib. On the day of the experiment mice were assigned to experimental groups, including one vehicle-only group (=control). At 30 min before administration of carmine dye, animals were dosed with vehicle or vehicle-plus-compound, mice were returned to their home cages after drug administration. After administration of carmine, the animals were either returned to their home cages (non-stressed) or individually placed in the same metal cages as used in the fecal output or entire GI tract transit to induce a novel environment stress. One hour after administration of carmine, mice were sacrificed by cervical dislocation, the abdomen opened midventrally, the small intestine from pylorus to cecum was removed, the mesentery divided in order to lay the intestine straight & flat—without stretching. The total length of intestine and the length of carmine-dyed intestine were measured in order to determine the percent of the upper GI tract over which transit had occurred as follows: {(Length of carmine-dyed intestine)/(Total length of intestine)}×100=% upper GI transit. The data expressed were group means±SD (or s.e.m.) and data expressed as % of control.

Experiment [3] has as its system novel environment-stressed mice. Kind of experiment: In Vivo Assay-Stress-Induced Fecal Output (Fecal Output for 1 hr). The following applies: for response vs control in vivo at 30 mg/kg: Mus musculus, po, 1 h. Details: species or system mouse. In short, it runs like this: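 Adult male Crl:CD-1(ICR) mice (˜30-35 g; at least 10 per dose group) were split into acclimated non-stressed controls, held individually for 16-18 hr in wire-mesh-bottom cages, and non-acclimated stressed groups. Mice were dosed intragastrically with vehicle or test compound in 0.5% methylcellulose, housed individually in novel cages over absorbent cardboard, and fecal pellets per mouse were counted hourly.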

Molecules are shown by their SMILES. Like-named read-outs stand apart in the source and are kept apart here.

As to `COc1ccc(CN(C(=O)[C@@H](N)Cc2ccc(C(N)=O)cc2)[C@@H](C)c2nc(-c3ccccc3)c[nH]2)cc1C(=O)O` [Cpd 4], in the experiment with male CD-1 mice [1], the “MEGIT-RS entire GI transit 5 hr (% RS)” value turned out to be 100 % RS.

Take `Cc1cc(C(N)=O)cc(C)c1C[C@H](N)C(=O)N(Cc1cccc(C(=O)O)c1)[C@@H](C)c1nc(-c2ccccc2)c[nH]1` [Cpd 227]: the “MEGIT-RS entire GI transit 5 hr (% RS)” value in the experiment with male CD-1 mice [1] worked out at 100 % RS. In the experiment on male CD-1 mice [2], the response vs control in vivo at 30 mg was 93.9%.

In the case of `COc1ccc(CN(C(=O)[C@@H](N)Cc2ccc(O)cc2)[C@@H](C)c2nc(-c3ccccc3)c[nH]2)cc1C(=O)O` [Cpd 261], in the experiment on male CD-1 mice [1], the “MEGIT-RS entire GI transit 5 hr (% RS)” value is 103.6 % RS. Further, the response vs control in vivo at 30 mg with male CD-1 mice [2] was 87.7%.

For `Cc1cc(O)cc(C)c1C[C@H](N)C(=O)N(Cc1cccc(C(=O)O)c1)[C@@H](C)c1nc(-c2ccccc2)c[nH]1` [Cpd 48], the response vs control in vivo at 30 mg in the experiment on male CD-1 mice [2] amounted to 102%.

Consider `COc1ccc(CN(C(=O)[C@@H](N)Cc2c(C)cc(C(N)=O)cc2C)[C@@H](C)c2nc(-c3ccccc3)c[nH]2)cc1OC` [Cpd 75], for which, in experiment [3] (dose 3.0, oral, NES mice, vs acclimated control), the “Fecal pellet output, Compound (% control) 3.0” value turned out to be 223.8 % control. Also, the “Fecal pellet output, Compound (% control) 10.0” value in experiment [3] (dose 10.0, oral, NES mice, vs acclimated control) is on record as 188.1 % control. Moreover, the “Fecal pellet output, Compound (% control) 30.0” value in experiment [3] (dose 30.0, oral, NES mice, vs acclimated control) amounted to 100 % control. For the same molecule, the “MEGIT entire GI transit 6 hr % ctrl” value in the experiment on male CD-1 mice [1] (dose 30 p.o.) amounted to 125 % ctrl; in the experiment with male CD-1 mice [1] (dose 60 p.o.) it was 0 % ctrl; with male CD-1 mice [1] (dose 100 p.o.), 0 % ctrl. Besides, the response vs control in vivo at 30 mg with male CD-1 mice [2] was 71.1%. Moreover, the response vs control in vivo at 60 mg with male CD-1 mice [2] (dose 60 (mg)) worked out at 56%. The response vs control in vivo at 100 mg with male CD-1 mice [2] stood at 45.6%.

For the molecule `COc1ccc(CN(C(=O)[C@@H](N)Cc2c(C)cc(C(N)=O)cc2C)[C@@H](C)c2nc(-c3ccccc3)c[nH]2)cc1C(=O)O` [Cpd 18], in experiment [3] (30 mg/kg oral, novel environment-stressed mice, 1 hr), the “Fecal Output (# pellets) cpd” value came to 3.1 pellets. The response vs control in vivo at 30 mg/kg in experiment [3] (30 mg/kg oral, relative to acclimated control, 1 hr, read-out: Fecal Output cpd % control) is 138%; in experiment [3] (30 mg/kg oral, relative to novel environment stress (NES) vehicle group, 1 hr, read-out: Fecal Output cpd % NES), 82.7%. For the same molecule, in the experiment with male CD-1 mice [1] (dose 30 p.o., novel environment stress), the “MEGIT-NES Entire GI transit 6 hr (% NES)” value was found to be 80 % NES. Further, the response vs control in vivo at 5 mg in the experiment on male CD-1 mice [2] (dose 5 (mg)) was determined as 94.2%. Moreover, in the experiment with male CD-1 mice [2] (dose 10 (mg)), the response vs control in vivo at 10 mg was found to be 99.6%. Further, in the experiment with male CD-1 mice [2] (dose 25 (mg)), the response vs control in vivo at 25 mg turned out to be 83%. Also, the response vs control in vivo at 30 mg in the experiment on male CD-1 mice [2] was 37.5%. The response vs control in vivo at 50 mg in the experiment on male CD-1 mice [2] (dose 50 (mg)) was determined as 69.9%. Moreover, in the experiment on male CD-1 mice [2], the response vs control in vivo at 100 mg came to 41.2%.

Regarding `Cc1cc(C(N)=O)cc(C)c1C[C@H](N)C(=O)N(Cc1ccc(C(=O)O)o1)[C@@H](C)c1nc(-c2ccccc2)c[nH]1` [Cpd 256], in the experiment on male CD-1 mice [2], the response vs control in vivo at 30 mg is 89.7%.

In the case of `COc1ccc(CN(C(=O)[C@@H](N)Cc2c(C)cc(C(N)=O)cc2C)[C@@H](C)c2nc(-c3ccc(I)cc3)c[nH]2)cc1C(=O)O` [Cpd 289], in the experiment on male CD-1 mice [1], the “MEGIT-RS entire GI transit 5 hr (% RS)” value is 14.1 % RS. The response vs control in vivo at 30 mg in the experiment with male CD-1 mice [2] was 76.4%.

Take `COc1ccc(CN(C(=O)[C@@H](N)Cc2c(C)cc(C(N)=O)cc2C)[C@@H](C)c2nc(-c3ccccc3)c[nH]2)cc1-c1nnn[nH]1` [Cpd 8]: the response vs control in vivo at 30 mg in the experiment on male CD-1 mice [2] was 77.3%.

For the molecule `Cc1cc(C(N)=O)cc(C)c1C[C@H](N)C(=O)N(Cc1cccc(-c2nnn[nH]2)c1)[C@@H](C)c1nc(-c2ccccc2)c[nH]1` [Cpd 242], in the experiment on male CD-1 mice [1], the “MEGIT-RS entire GI transit 5 hr (% RS)” value was determined as 100 % RS.

In the case of `COC(=O)c1cc(CN(C(=O)[C@@H](N)Cc2c(C)cc(C(N)=O)cc2C)[C@@H](C)c2nc(-c3ccccc3)c[nH]2)ccc1OC` [Cpd 17], in the experiment on male CD-1 mice [2], the response vs control in vivo at 30 mg amounted to 37.3%.
